Reference: ChEMBL document CHEMBL1123021, “3-Amino-beta-carboline derivatives and the benzodiazepine receptor. Synthesis of a selective antagonist of the sedative action of diazepam” (J Med Chem, 1985)

Target: GABA-A receptor; anion channel
Test: Inhibition of [3H]- flunitrazepam binding to GABA-A Benzodiazepine receptor of rat cerebral cortex membranes
Assay type: cell membranes, Membrane

SMILES	IC50
O=CNc1cc2c3ccccc3nc-2c[nH]1	4.7 µM
CCOC(=O)c1cc2c(cn1)[nH]c1ccccc12	0.002 µM
COC(=O)Nc1cc2c3ccccc3nc-2c[nH]1	0.071 µM
Nc1cc2c(cn1)[nH]c1ccccc12	25 µM
O=C(Nc1cc2c3ccccc3nc-2c[nH]1)C(F)(F)F	6.3 µM
CC(=O)Nc1cc2c3ccccc3nc-2c[nH]1	4 µM
CS(=O)(=O)Nc1cc2c3ccccc3nc-2c[nH]1	62 µM
CCOC(=O)Nc1cc2c3ccccc3nc-2c[nH]1	0.08 µM
CCNc1cc2c3ccccc3nc-2c[nH]1	0.46 µM
